From US10428083B2, “Heterocyclylmethyl-thienouracile as antagonists of the adenosine-A2B-receptor” (BAYER PHARMA AKTIENGESELLSCHAFT, priority 2015, dated 2019)

biological target: human adenosine A2b receptor (Homo sapiens (Human), UniProt P29275); test: Cellular in vitro reporter gene test for A2b receptor activity (CHO-K1, CRE-luciferase, NECA stimulation); assay type: cell-based; conditions: recombinant CHO-K1 cell line, CRE-luciferase reporter, antagonism of EC50 concentration of NECA; in some cases means of several determinations, rounded to two significant figures; read-out: A2b receptor IC50
Method in brief: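 CHO-K1 cells with CRE-driven luciferase; antagonists co-incubated with NECA at its EC50, determined in a pre-experiment on each test day. Luciferase read by luminescence 3 h after NECA addition.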

Chain of human adenosine A2b receptor (P29275 whole entry): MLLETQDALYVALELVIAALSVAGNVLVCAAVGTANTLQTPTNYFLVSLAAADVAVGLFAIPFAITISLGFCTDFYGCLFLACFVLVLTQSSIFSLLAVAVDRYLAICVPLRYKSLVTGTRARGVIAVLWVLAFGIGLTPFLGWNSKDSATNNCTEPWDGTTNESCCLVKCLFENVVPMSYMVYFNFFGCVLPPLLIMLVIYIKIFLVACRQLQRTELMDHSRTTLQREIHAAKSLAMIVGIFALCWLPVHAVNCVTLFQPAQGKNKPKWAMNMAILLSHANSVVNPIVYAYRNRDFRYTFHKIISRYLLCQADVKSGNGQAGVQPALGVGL

Row | IC50 | Structure (SMILES)
1 | 65 nM | Cc1c(Cn2nc[nH]c2=O)sc2c1c(=O)n(CC(F)(F)F)c(=O)n2CC1CCCO1 (single isomer, unassigned) [Example 436, 5-Methyl-6-[(5-oxo-4,5-dihydro-1H-1,2,4-triazol-1-yl)methyl]-1-(tetrahydrofuran-2-ylmethyl)-3-(2,2,2-trifluoroethyl)thieno[2,3-d]pyrimidine-2,4(1H,3H)-dione]
2 | 22 nM | Cc1c(CN2CCNC2=O)sc2c1c(=O)n(C(C)C)c(=O)n2C [Example 312, 3-Isopropyl-1,5-dimethyl-6-[(2-oxoimidazolidin-1-yl)methyl]thieno[2,3-d]pyrimidine-2,4(1H,3H)-dione]
3 | 38 nM | CCC(C)n1c(=O)c2c(C)c(CN3CCNC3=O)sc2n(CCOC)c1=O (racemic) [Example 190, 3-sec-Butyl-1-(2-methoxyethyl)-5-methyl-6-[(2-oxoimidazolidin-1-yl)methyl]thieno[2,3-d]pyrimidine-2,4(1H,3H)-dione]
4 | 230 nM | COCCn1c(=O)n(C(C)C(F)(F)F)c(=O)c2c(C)c(CN3CCNC3=O)sc21 (single isomer, unassigned) [Example 499, 1-(2-Methoxyethyl)-5-methyl-6-[(2-oxoimidazolidin-1-yl)methyl]-3-(1,1,1-trifluoropropan-2-yl)thieno[2,3-d]pyrimidine-2,4(1H,3H)-dione]
5 | 17 nM | Cc1c(CN2CCNC2=O)sc2c1c(=O)n(CC(F)(F)F)c(=O)n2CC1COC1 [Example 212, 5-Methyl-1-(oxetan-3-ylmethyl)-6-[(2-oxoimidazolidin-1-yl)methyl]-3-(2,2,2-trifluoroethyl)thieno[2,3-d]pyrimidine-2,4(1H,3H)-dione]
6 | 20 nM | CCSCCn1c(=O)n(CC)c(=O)c2c(C)c(CN3CCNC3=S)sc21 [Example 294, 3-Ethyl-1-[2-(ethylsulphanyl)ethyl]-5-methyl-6-[(2-thioxoimidazolidin-1-yl)methyl]thieno[2,3-d]pyrimidine-2,4(1H,3H)-dione]
7 | 39 nM | CCn1c(=O)c2c(C)c(CN3CCNC3=O)sc2n(CC(C)OC)c1=O (single isomer, unassigned; enantiomer 1) [Example 63, 3-Ethyl-1-(2-methoxypropyl)-5-methyl-6-[(2-oxoimidazolidin-1-yl)methyl]thieno[2,3-d]pyrimidine-2,4(1H,3H)-dione (Enantiomer 1)]
8 | 43 nM | [2H]C([2H])(c1sc2c(c1C)c(=O)n([C@H](C)C(F)(F)F)c(=O)n2CCOC)N1CCNC1=O [Example 501, 1-(2-Methoxyethyl)-5-methyl-6-[(2-oxoimidazolidin-1-yl)(dideutero)methyl]-3-[(2R)-1,1,1-trifluoropropan-2-yl]thieno[2,3-d]pyrimidine-2,4(1H,3H)-dione]
9 | 11 nM | Cc1c(CN2CCNC2=O)sc2c1c(=O)n(CC(F)(F)F)c(=O)n2CCCF [Example 93, 1-(3-Fluoropropyl)-5-methyl-6-[(2-oxoimidazolidin-1-yl)methyl]-3-(2,2,2-trifluoroethyl)thieno[2,3-d]pyrimidine-2,4(1H,3H)-dione]
10 | 19 nM | Cc1c(CN2CCNC2=O)sc2c1c(=O)n(CC(F)F)c(=O)n2CC1CCCO1 (racemic) [Example 219, 3-(2,2-Difluoroethyl)-5-methyl-6-[(2-oxoimidazolidin-1-yl)methyl]-1-(tetrahydrofuran-2-ylmethyl)thieno[2,3-d]pyrimidine-2,4(1H,3H)-dione]
11 | 4.6 nM | CCn1c(=O)c2c(C)c(CN3CCNC3=O)sc2n(CCF)c1=O [Example 50, 3-Ethyl-1-(2-fluoroethyl)-5-methyl-6-[(2-oxoimidazolidin-1-yl)methyl]thieno[2,3-d]pyrimidine-2,4(1H,3H)-dione]
12 | 60 nM | Cc1c(CN2CCNC(=O)C2=O)sc2c1c(=O)n(CC(F)(F)F)c(=O)n2C [Example 124, 6-[(2,3-Dioxopiperazin-1-yl)methyl]-1,5-dimethyl-3-(2,2,2-trifluoroethyl)thieno[2,3-d]pyrimidine-2,4(1H,3H)-dione]
13 | 200 nM | CCn1c(=O)c2c(C)c(CN3CCNC3=O)sc2n(CC2CCCCO2)c1=O (single isomer, unassigned) [Example 179, 3-Ethyl-5-methyl-6-[(2-oxoimidazolidin-1-yl)methyl]-1-(tetrahydro-2H-pyran-2-ylmethyl)thieno[2,3-d]pyrimidine-2,4(1H,3H)-dione]
14 | 4.3 nM | C#CCn1c(=O)c2c(C)c(CN3CCNC3=O)sc2n(CCOC)c1=O [Example 315, 1-(2-Methoxyethyl)-5-methyl-6-[(2-oxoimidazolidin-1-yl)methyl]-3-(prop-2-yn-1-yl)thieno[2,3-d]pyrimidine-2,4(1H,3H)-dione]
15 | 2.4 nM | C=C(C)CCn1c(=O)c2c(C)c(CN3CCNC3=O)sc2n(CCOC)c1=O [Example 319, 1-(2-Methoxyethyl)-5-methyl-3-(3-methylbut-3-en-1-yl)-6-[(2-oxoimidazolidin-1-yl)methyl]thieno[2,3-d]pyrimidine-2,4(1H,3H)-dione]
16 | 36 nM | CCOCCn1c(=O)n(CCOC)c(=O)c2c(C)c(CN3CCNC3=S)sc21 [Example 169, 1-(2-Ethoxyethyl)-3-(2-methoxyethyl)-5-methyl-6-[(2-thioxoimidazolidin-1-yl)methyl]thieno[2,3-d]pyrimidine-2,4(1H,3H)-dione]
17 | 3.3 nM | Cc1c(CN2CCNC2=O)sc2c1c(=O)n(CC(C)C)c(=O)n2CC(F)F [Example 191, 1-(2,2-Difluoroethyl)-3-isobutyl-5-methyl-6-[(2-oxoimidazolidin-1-yl)methyl]thieno[2,3-d]pyrimidine-2,4(1H,3H)-dione]
18 | 4.6 nM | COC(C)Cn1c(=O)c2c(C)c(CN3CCNC3=O)sc2n(CCC(F)(F)F)c1=O (single isomer, unassigned) [Example 413, 3-(2-Methoxypropyl)-5-methyl-6-[(2-oxoimidazolidin-1-yl)methyl]-1-(3,3,3-trifluoropropyl)thieno[2,3-d]pyrimidine-2,4(1H,3H)-dione]
19 | 120 nM | CCn1c(=O)c2c(C)c(CN3CCN(C(C)=O)C3=O)sc2n(CCOC)c1=O [Example 104, 6-[(3-Acetyl-2-oxoimidazolidin-1-yl)methyl]-3-ethyl-1-(2-methoxyethyl)-5-methylthieno[2,3-d]pyrimidine-2,4(1H,3H)-dione]
20 | 12 nM | CCn1c(=O)c2c(C)c(CN3CCNC(=O)C3=O)sc2n(CCOC)c1=O [Example 120, 6-[(2,3-Dioxopiperazin-1-yl)methyl]-3-ethyl-1-(2-methoxyethyl)-5-methylthieno[2,3-d]pyrimidine-2,4(1H,3H)-dione]
21 | 75 nM | Cc1c(Cn2nc[nH]c2=O)sc2c1c(=O)n(CC(C)(C)C)c(=O)n2CC1CCCO1 (racemic) [Example 429, 3-(2,2-Dimethylpropyl)-5-methyl-6-[(5-oxo-4,5-dihydro-1H-1,2,4-triazol-1-yl)methyl]-1-(tetrahydrofuran-2-ylmethyl)thieno[2,3-d]pyrimidine-2,4(1H,3H)-dione]
22 | 1.5 nM | COCCn1c(=O)n(CCc2ccccc2)c(=O)c2c(C)c(CN3CCNC3=O)sc21 [Example 176, 1-(2-Methoxyethyl)-5-methyl-6-[(2-oxoimidazolidin-1-yl)methyl]-3-(2-phenylethyl)thieno[2,3-d]pyrimidine-2,4(1H,3H)-dione]
23 | 17 nM | COCCn1c(=O)n(CCc2ccccc2)c(=O)c2c(C)c(CN3CCOCC3=O)sc21 [Example 13, 1-(2-Methoxyethyl)-5-methyl-6-[(3-oxomorpholin-4-yl)methyl]-3-(2-phenylethyl)thieno[2,3-d]pyrimidine-2,4(1H,3H)-dione]
24 | 52 nM | Cc1c(CN2CCNC(=O)C2=O)sc2c1c(=O)n(CC(C)(C)C)c(=O)n2CC1CCCO1 (single isomer, unassigned) [Example 485, 3-(2,2-Dimethylpropyl)-6-[(2,3-dioxopiperazin-1-yl)methyl]-5-methyl-1-(tetrahydrofuran-2-ylmethyl)thieno[2,3-d]pyrimidine-2,4(1H,3H)-dione]
25 | 30 nM | CCOCCn1c(=O)c2c(C)c(CN3CCNC3=S)sc2n(CCCF)c1=O [Example 405, 3-(2-Ethoxyethyl)-1-(3-fluoropropyl)-5-methyl-6-[(2-thioxoimidazolidin-1-yl)methyl]thieno[2,3-d]pyrimidine-2,4(1H,3H)-dione]
26 | 22 nM | Cc1c(CN2CCNC2=O)sc2c1c(=O)n(CC(F)F)c(=O)n2CC1CCO1 (single isomer, unassigned) [Example 218, 3-(2,2-Difluoroethyl)-5-methyl-1-(oxetan-2-ylmethyl)-6-[(2-oxoimidazolidin-1-yl)methyl]thieno[2,3-d]pyrimidine-2,4(1H,3H)-dione]
27 | 15 nM | COC(C)Cn1c(=O)c2c(C)c(CN3CCNC3=NC#N)sc2n(CCC(F)(F)F)c1=O (single isomer, unassigned) [Example 456, [1-{[3-(2-Methoxypropyl)-5-methyl-2,4-dioxo-1-(3,3,3-trifluoropropyl)-1,2,3,4-tetrahydrothieno[2,3-d]pyrimidin-6-yl]methyl}imidazolidin-2-ylidene]cyanamide]
28 | 82 nM | COCCn1c(=O)c2c(C)c(CN3CCNC3=NC#N)sc2n(CC2CCCO2)c1=O (single isomer, unassigned) [Example 368, [1-{[3-(2-Methoxyethyl)-5-methyl-2,4-dioxo-1-(tetrahydrofuran-2-ylmethyl)-1,2,3,4-tetrahydrothieno[2,3-d]pyrimidin-6-yl]methyl}imidazolidin-2-ylidene]cyanamide]
29 | 12 nM | CCn1c(=O)c2c(C)c(CN3CCNC3=O)sc2n(CCCF)c1=O [Example 51, 3-Ethyl-1-(3-fluoropropyl)-5-methyl-6-[(2-oxoimidazolidin-1-yl)methyl]thieno[2,3-d]pyrimidine-2,4(1H,3H)-dione]
30 | 6 nM | COC(C)(C)Cn1c(=O)c2c(C)c(CN3CCNC3=O)sc2n(CCC(F)(F)F)c1=O [Example 236, 3-(2-Methoxy-2-methylpropyl)-5-methyl-6-[(2-oxoimidazolidin-1-yl)methyl]-1-(3,3,3-trifluoropropyl)thieno[2,3-d]pyrimidine-2,4(1H,3H)-dione]
